In publication PMC7953826 (Nature cell biology, 2020):

Key:
[1] = target: T1, hDyn1 (Homo sapiens, UniProt Q05193); assay: negative-stain EM, GTP-induced helix disassembly on actin bundles; format: binding; details: 1 mM GTP, with actin, room temperature, 30 min
T1 sequence (Q05193 1-864): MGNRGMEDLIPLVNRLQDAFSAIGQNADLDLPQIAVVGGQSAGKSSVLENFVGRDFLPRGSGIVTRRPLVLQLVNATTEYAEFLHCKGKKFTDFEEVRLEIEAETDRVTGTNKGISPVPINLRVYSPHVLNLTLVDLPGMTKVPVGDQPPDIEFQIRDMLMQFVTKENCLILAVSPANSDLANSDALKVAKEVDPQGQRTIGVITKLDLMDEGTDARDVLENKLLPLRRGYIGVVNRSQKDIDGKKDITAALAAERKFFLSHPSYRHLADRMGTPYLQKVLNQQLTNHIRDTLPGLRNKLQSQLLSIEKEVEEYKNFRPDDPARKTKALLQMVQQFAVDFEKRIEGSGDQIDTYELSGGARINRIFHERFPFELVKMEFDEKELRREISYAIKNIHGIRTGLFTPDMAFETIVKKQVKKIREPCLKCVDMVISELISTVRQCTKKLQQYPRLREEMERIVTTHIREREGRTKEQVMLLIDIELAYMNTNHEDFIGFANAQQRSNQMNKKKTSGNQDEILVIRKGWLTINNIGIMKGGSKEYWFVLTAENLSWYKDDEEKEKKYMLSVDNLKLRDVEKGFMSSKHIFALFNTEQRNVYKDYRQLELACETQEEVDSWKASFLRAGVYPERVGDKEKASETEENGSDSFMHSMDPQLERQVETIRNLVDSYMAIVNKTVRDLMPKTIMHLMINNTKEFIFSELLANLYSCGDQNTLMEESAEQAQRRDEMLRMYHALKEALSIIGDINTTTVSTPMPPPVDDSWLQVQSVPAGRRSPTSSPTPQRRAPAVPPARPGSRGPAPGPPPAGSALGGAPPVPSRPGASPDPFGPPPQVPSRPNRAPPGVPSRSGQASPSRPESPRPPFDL

[2] = target: T2, hDyn2 (Homo sapiens, UniProt P50570); assay: as above; format: binding; details: 1 mM GTP, with actin, room temperature, 30 min
T2 sequence (P50570 1-870): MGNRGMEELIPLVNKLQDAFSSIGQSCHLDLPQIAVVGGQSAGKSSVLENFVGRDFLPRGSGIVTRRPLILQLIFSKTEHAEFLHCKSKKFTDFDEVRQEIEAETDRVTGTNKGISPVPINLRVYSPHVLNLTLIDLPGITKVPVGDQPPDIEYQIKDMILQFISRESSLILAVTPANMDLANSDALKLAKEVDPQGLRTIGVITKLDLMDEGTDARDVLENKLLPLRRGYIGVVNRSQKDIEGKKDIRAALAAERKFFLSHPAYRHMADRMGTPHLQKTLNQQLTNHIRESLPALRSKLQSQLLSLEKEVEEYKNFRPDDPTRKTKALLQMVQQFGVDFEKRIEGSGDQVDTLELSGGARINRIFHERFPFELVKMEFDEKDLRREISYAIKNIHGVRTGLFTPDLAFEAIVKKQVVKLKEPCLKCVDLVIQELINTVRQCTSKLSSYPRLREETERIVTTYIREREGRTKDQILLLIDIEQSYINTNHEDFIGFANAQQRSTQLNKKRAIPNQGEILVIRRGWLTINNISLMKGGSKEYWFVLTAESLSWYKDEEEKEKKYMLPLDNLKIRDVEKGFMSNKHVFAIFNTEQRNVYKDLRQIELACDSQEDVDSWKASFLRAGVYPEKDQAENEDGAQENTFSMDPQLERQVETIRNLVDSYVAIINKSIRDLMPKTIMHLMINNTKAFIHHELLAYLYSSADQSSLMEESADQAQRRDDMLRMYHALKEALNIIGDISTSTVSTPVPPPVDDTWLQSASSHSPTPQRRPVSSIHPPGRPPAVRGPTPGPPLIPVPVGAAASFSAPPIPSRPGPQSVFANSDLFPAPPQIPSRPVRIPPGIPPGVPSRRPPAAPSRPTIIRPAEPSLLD

## Nc1nc2c(ncn2[C@@H]2O[C@H](COP(=O)(O)OP(=O)(O)OP(=O)(O)O)[C@@H](O)[C@H]2O)c(=O)[nH]1 [GTP]
[1]
  negative-stain EM, GTP-induced helix disassembly on actin bundles: hDyn1 and hDyn2 helices along actin bundles were disassembled upon GTP addition
[2]
  negative-stain EM, GTP-induced helix disassembly on actin bundles: hDyn1 and hDyn2 helices along actin bundles were disassembled upon GTP addition
